Reference: PMC5642494 (Oncotarget, 2017)

System: ZR-75-1 xenograft tumors
Test: mRNA expression of cell cycle regulatory genes in ZR-75-1 xenograft tumors
Format: in vivo, mouse
Conditions: 50 or 75 mg/kg QDx5; Cyclin E, MCM7, CDKN2C, PTEN, AURA, CCNB1, FOXM1, RRM2, MKI67, Topo IIα
Method: page 4: or pHH3 facilitates quantification of the inhibition of #79654). The suspension was placed on the Qiashredder cell cycle progression since lower expression of these 2 columns (Qiagen #79654) and RNA was purified by biomarkers quantitatively correlates with the extent of following the protocol for the RNAeasy Mini Kit (Qiagen progression of cells through either S-phase (Topo IIα) or # 74104). Following the last wash, the purified RNA was M-phase (pHH3). The inhibition of CDK9 was assessed eluted using […] RNase-free water and collected in by measuring the inhibition of either MCL1 expression labeled DNase/RNase-free collection tubes. The quantity or phosphorylation of […] on the C-terminal domain of RNA was measured by spectral analysis using the repeat on RNA polymerase II (pCTD). The visualization Nanodrop Spectrophotometer (NanoDrop Products, of the signals corresponding to these biomarkers was Wilmington, DE, USA) and then placed in -80 degree […] achieved through development with the ECL SuperSignal freezer for analysis. The cDNA preparation was completed chemo-luminescence kit (Pierce) and image capture using as described in the included kit protocol using Superscript the Fuji LAS400 image capture instrument. […] Isolation and purification of RNA from tumors All samples, once quantitated, were delivered to […] […]

CCN1CCN(Cc2ccc(Nc3ncc(F)c(-c4cc(F)c5nc(C)n(C(C)C)c5c4)n3)nc2)CC1 [abemaciclib, Abemaciclib]
mRNA expression of cell cycle genes in tumors: suppression of the expression of several genes
